Experimental data published in US9066861B2 (priority 2009, dated 2015).

Experiments:
[1] = Stability analysis of raw API by stability indicating HPLC method; type: physicochemical; conditions: for Assay (%) HPLC / Percentage Drop (%) HPLC / loss in 3 Months: raw API; for Assay (%) HPLC / Percentage Drop (%) HPLC: after 3 Months
Text: (§1) In both studies the * Initial denotes the results of the samples tested at the time of receipt of the API from the supplier.

[2] = Stability analysis of raw API by titration method (BP); type: physicochemical; conditions: after 3 Months
Text: as §1

CC(=O)O[C@H]1C[C@@]2(C)[C@@H](C[C@@H](O)[C@H]3[C@@]4(C)CC[C@@H](O)[C@@H](C)[C@@H]4CC[C@@]32C)/C1=C(\CCC=C(C)C)C(=O)O [Sodium Fusidate]
Initial (%) ([1]; raw API tested at the time of receipt from the supplier, method not stated): 98.7%
Assay (%) HPLC ([1]; 45° C. (C) closed Petri dish): 92.96%
Percentage Drop (%) HPLC ([1]; 45° C. (C) closed Petri dish): 5.74%
Assay (%) HPLC ([1]; 45° C. (O) open Petri dish): 92.65%
Percentage Drop (%) HPLC ([1]; 45° C. (O) open Petri dish): 6.05%
loss in 3 Months ([1]; 45° C. (open condition)): about 6%
Assay (%) HPLC ([1]; RT (C) closed Petri dish): 97.67%
Percentage Drop (%) HPLC ([1]; RT (C) closed Petri dish): 1.03%
Assay (%) HPLC ([1]; RT (O) open Petri dish): 96.25%
Percentage Drop (%) HPLC ([1]; RT (O) open Petri dish): 2.45%
loss in 3 Months ([1]; room temperature (open condition)): about 2.5%
stability as an API, Sodium Fusidate compared with Fusidic acid ([1]; raw APIs, Tables 1 and 2): significantly more stable than Fusidic acid
Assay (%) Titration ([2]; 45° C. (C) closed Petri dish): 97.16%
Percentage Drop (%) Titration ([2]; 45° C. (C) closed Petri dish): 1.54%
Assay (%) Titration ([2]; 45° C. (O) open Petri dish): 97.07%
Percentage Drop (%) Titration ([2]; 45° C. (O) open Petri dish): 1.63%
Assay (%) Titration ([2]; RT (C) closed Petri dish): 98.85%
Percentage Drop (%) Titration ([2]; RT (C) closed Petri dish): −0.15%
Assay (%) Titration ([2]; RT (O) open Petri dish): 97.71%
Percentage Drop (%) Titration ([2]; RT (O) open Petri dish): 0.99%
